Test results taken from ChEMBL document CHEMBL4138187, “Novel 2-(2-arylmethylthio-4-chloro-5-methylbenzenesulfonyl)-1-(1,3,5-triazin-2-ylamino)guanidine derivatives: Inhibition of human carbonic anhydrase cytosolic isozymes I and II and the transmembrane tumor-associated isozymes IX and XII, anticancer activity, and molecular modeling studies” (Eur J Med Chem, 2018).

Tests used:
Carbonic anhydrase 9 = Carbonic anhydrase 9 (Homo sapiens, UniProt Q16790)
Description: Inhibition of human carbonic anhydrase 9 by stopped-flow CO2 hydration assay

HeLa = assay: Cytotoxicity against human HeLa cells after 72 hrs by MTT assay; type: functional, cell-based
HCT-116 = assay: Cytotoxicity against human HCT116 cells after 72 hrs by MTT assay; type: functional, cell-based; conditions: HCT-116, 72 h
MCF7 = assay: Cytotoxicity against human MCF7 cells after 72 hrs by MTT assay; type: functional, cell-based; conditions: MCF7, 72 h
Carbonic anhydrase 1 = Carbonic anhydrase 1 (Homo sapiens, UniProt P00915)
Carbonic anhydrase 1, sequence (P00915 whole entry): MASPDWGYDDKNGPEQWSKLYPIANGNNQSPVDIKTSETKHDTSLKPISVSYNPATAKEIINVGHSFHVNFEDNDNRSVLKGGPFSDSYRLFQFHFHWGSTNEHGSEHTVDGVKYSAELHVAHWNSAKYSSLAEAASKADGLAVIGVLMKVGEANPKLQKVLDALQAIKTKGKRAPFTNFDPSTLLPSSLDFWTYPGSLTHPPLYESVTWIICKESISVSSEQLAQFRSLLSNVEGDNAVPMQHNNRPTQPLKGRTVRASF
Description: Inhibition of human carbonic anhydrase 1 by stopped-flow CO2 hydration assay

Carbonic anhydrase 2 = Carbonic anhydrase 2 (Homo sapiens, UniProt P00918)
Description: Inhibition of human carbonic anhydrase 2 by stopped-flow CO2 hydration assay

HaCaT = assay: Cytotoxicity against human HaCaT cells after 72 hrs by MTT assay; type: cell-based

Ki (Carbonic anhydrase 9)	Ki (Carbonic anhydrase 1)	Ki (Carbonic anhydrase 2)	SMILES	IC50 (HeLa)	IC50 (HCT-116)	IC50 (MCF7)	IC50 (HaCaT)
39.4 nM	66.6 nM	83.7 nM	N/C(=N\S(=O)(=O)c1ccccc1SCc1ccccc1)NNc1nc(Cl)nc(Nc2ccc(S(N)(=O)=O)cc2)n1	> 100 µM	> 100 µM	> 100 µM	
3340 nM	337 nM	9.3 nM	N/C(=N\S(=O)(=O)c1ccccc1SCc1cccc(C(F)(F)F)c1)NNc1nc(Cl)nc(Nc2cccc(S(N)(=O)=O)c2)n1	> 100 µM	> 100 µM	> 100 µM	
47.1 nM	514 nM	89.5 nM	N/C(=N\S(=O)(=O)c1ccccc1SCc1ccc(C(F)(F)F)cc1)NNc1nc(Cl)nc(NCc2ccc(S(N)(=O)=O)cc2)n1	> 100 µM	> 100 µM	> 100 µM	
3970 nM	396 nM	94.7 nM	N/C(=N\S(=O)(=O)c1ccccc1SCc1ccccc1)NNc1nc(Cl)nc(Nc2cccc(S(N)(=O)=O)c2)n1	> 100 µM	> 100 µM	> 100 µM	
37.1 nM	148 nM	7.4 nM	N/C(=N\S(=O)(=O)c1ccccc1SCc1cccc(C(F)(F)F)c1)NNc1nc(Cl)nc(Nc2ccc(S(N)(=O)=O)cc2)n1	> 100 µM	> 100 µM	> 100 µM	
43.6 nM	219 nM	5.4 nM	N/C(=N\S(=O)(=O)c1ccccc1SCc1cccc(C(F)(F)F)c1)NNc1nc(Cl)nc(NCc2ccc(S(N)(=O)=O)cc2)n1	> 100 µM	> 100 µM	> 100 µM	
46.9 nM	294 nM	38.8 nM	N/C(=N\S(=O)(=O)c1ccccc1SCc1ccccc1)NNc1nc(Cl)nc(NCc2ccc(S(N)(=O)=O)cc2)n1	> 100 µM	> 100 µM	> 100 µM	
41.1 nM	733 nM	161 nM	N/C(=N\S(=O)(=O)c1ccccc1SCc1cccc2ccccc12)NNc1nc(Cl)nc(Nc2ccc(S(N)(=O)=O)cc2)n1	17 µM			61 µM
383 nM	2140 nM	187 nM	N/C(=N\S(=O)(=O)c1ccccc1SCc1cccc2ccccc12)NNc1nc(Cl)nc(NCc2ccc(S(N)(=O)=O)cc2)n1	> 100 µM	> 100 µM	> 100 µM	
3400 nM	3340 nM	933 nM	N/C(=N\S(=O)(=O)c1ccccc1SCc1cccc2ccccc12)NNc1nc(Cl)nc(Nc2cccc(S(N)(=O)=O)c2)n1	> 100 µM	> 100 µM	> 100 µM	
421 nM	536 nM	326 nM	N/C(=N\S(=O)(=O)c1ccccc1SCc1ccc(C(F)(F)F)cc1)NNc1nc(Cl)nc(Nc2cccc(S(N)(=O)=O)c2)n1	> 100 µM	> 100 µM	> 100 µM	
42.9 nM	386 nM	22 nM	N/C(=N\S(=O)(=O)c1ccccc1SCc1ccc(C(F)(F)F)cc1)NNc1nc(Cl)nc(Nc2ccc(S(N)(=O)=O)cc2)n1	> 100 µM	> 100 µM	> 100 µM	
